How the values were obtained:
[1] = Drug uptake in human HCT116 cell subcellular region at 1 uM incubated for 3 hrs measured after 30 hrs of drug washout by confocal fluorescence microscopy; format: ADME, cell-based; conditions: hct-116, 3 h
[2] = Cytotoxicity against mouse Neuro2a cells after 24 hrs by MTT assay; format: functional, cell-based; conditions: N2a
[3] = Drug uptake in human HCT116 cell chromatin at 1 uM after 12 hrs by confocal fluorescence microscopy; format: ADME, cell-based; conditions: hct-116, 12 h
[4] = test system: HeLa; assay: Cytotoxicity against human HeLa cells after 24 hrs by MTT assay; format: functional, cell-based
[5] = Drug uptake in human HCT116 cell lysosomes at 1 uM by using Lyso Tracker Red DND-99 staining; format: ADME, cell-based, Lysosome; conditions: hct-116, 1 µM
[6] = Drug uptake in human HCT116 mitochondria at 1 uM by using Mito Tracker Red 580 staining; format: ADME
[7] = Drug uptake in human HCT116 cells cytosol at 1 uM after 12 hrs by confocal fluorescence microscopy; format: ADME, cell-based, HCT-116
[8] = Drug uptake in human HCT116 cell nuclear membrane at 1 uM after 12 hrs by confocal fluorescence microscopy; format: ADME, cell membranes; conditions: hct-116, 12 h
[9] = Drug uptake in human HCT116 cell […] at 1 uM by using Lyso Tracker Red DND-99 staining; format: ADME, cell-based; conditions: hct-116, 1 µM
[10] = test system: HCT-116; assay: Cytotoxicity against human HCT116 cells after 24 hrs by MTT assay; format: functional, cell-based; conditions: HCT-116, 24 h
[11] = test system: HCT-116; assay: Cellular uptake in human HCT116 cells at 1 uM after 1 hr by confocal fluorescence microscopy; format: ADME, cell-based; conditions: hct-116, 1 h

CC(=O)c1ccc(OC2Cc3c(ccc(C(C)=O)c3O)O2)cc1O (stereo unspecified)
Drug uptake [1]: Active
IC50 [2]: 81 nM
Drug uptake [3]: Active
IC50 [4]: 490 nM
Drug uptake [5]: Not Active
Drug uptake [6]: Not Active
Drug uptake [7]: Active
Drug uptake [8]: Active
Drug uptake [9]: Not Active
IC50 [10]: 220 nM
Drug uptake [11]: Active

— ChEMBL document CHEMBL1909600, “Ganodone, a bioactive benzofuran from the fruiting bodies of Ganoderma tsugae” (J Nat Prod, 2011)
